# Test system: interaction of CUG repeat RNA with recombinant MBNL1 protein (MBNL1-PL)
# Experiment: Beta-galactosidase enzymatic complementation assay
# Format: binding, human
# Conditions: (CUG)109 tethered to streptavidin plate
# Protocol: FIGS. 33A and 33B. […] (CUG)109 transcripts are tethered to the surface of a streptavidin-coated microtiter plate using a capture oligonucleotide that is biotinylated. The capture oligo anneals to complementary sequence at the 3′ end of the CUG repeat RNA. Recombinant human MBNL1 is expressed as a fusion with the PL fragment of beta-galactosidase. PL is a 55 amino acid fragment of beta-galactosidase. […] After incubation with test compound, unbound MBNL1-PL is washed away (FIG. 33B). Next, the complementing fragment of beta-galactosidase is added to determine the amount of MBNL1-PL that continues to interact with (CUG)109 RNA and thereby is retained on the microtiter plate. The binding of complementing fragment of beta-galactosidase to PL reconstitutes its enzymatic activity. This activity is then determined by adding substrate to provide a fluorescence or chemiluminescence signal from active beta-galactosidase. […]
# (CUG)109 transcripts are tethered to the surface of a streptavidin-coated microtiter plate using a capture oligonucleotide that is biotinylated. […] Recombinant human MBNL1 is expressed as a fusion with the PL fragment of beta-galactosidase. […] This activity is then determined by adding substrate to provide a fluorescence or chemiluminescence signal from active beta-galactosidase. […]
structure (smiles),measurement,value
CCCN(CCCN(C)C)c1cc(/C=C2/Sc3ccccc3N2C)c2ccccc2[n+]1-c1ccccc1 [SybrGreen],amount of MBNL1-PL retained on plate (beta-galactosidase activity),reduce the amount of MBNL1-PL retained on plate

# Source: patent US9371527B2, “Compositions and methods related to protein displacement therapy for myotonic distrophy” (University of Rochester, priority 2006, dated 2016)
